# Target: T1, P. xanthii β-tubulin (TUB2), MBC-sensitive (E198) (Podosphaera fusca, UniProt M4QC09)
# T1 construct: β-tubulin alone without α-tubulin; E198 allele
# Test: intrinsic tryptophan fluorescence quenching, modified Stern-Volmer
# Type: binding
# Settings: double-log; n = 1.41; excitation 295 nm; carbendazim dosed as commercial 50% water-dispersible formulation (Maypon Flow)
# Excerpt: intrinsic tryptophan fluorescence quenching, modified Stern-Volmer on P. xanthii β-tubulin (TUB2), MBC-sensitive (E198)
# T1 sequence (M4QC09 1-447): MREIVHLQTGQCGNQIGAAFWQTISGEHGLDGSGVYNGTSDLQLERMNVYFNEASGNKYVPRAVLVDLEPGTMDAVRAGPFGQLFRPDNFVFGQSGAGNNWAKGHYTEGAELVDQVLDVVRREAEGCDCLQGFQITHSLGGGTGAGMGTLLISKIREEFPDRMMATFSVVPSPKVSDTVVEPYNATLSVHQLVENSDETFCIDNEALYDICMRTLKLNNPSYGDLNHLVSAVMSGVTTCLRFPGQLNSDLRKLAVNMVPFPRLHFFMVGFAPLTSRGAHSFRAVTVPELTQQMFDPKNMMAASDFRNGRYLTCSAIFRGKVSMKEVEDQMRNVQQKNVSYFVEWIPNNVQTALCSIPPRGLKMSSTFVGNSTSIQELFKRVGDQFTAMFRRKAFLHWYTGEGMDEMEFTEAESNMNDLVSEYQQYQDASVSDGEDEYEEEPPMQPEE
smiles,measurement,value
"COC(=O)Nc1nc2ccccc2[nH]1 [carbendazim, methyl-2-benzimidazole carbamate]",K^b,1380 M⁻¹

# From publication PMC5940828, “Analysis of β-tubulin-carbendazim interaction reveals that binding site for MBC fungicides does not include residues involved in fungicide resistance” (Scientific Reports, 2018)
